Source: patent US20130243847A1, “ACTIVATED CREATININE AND PRECURSORS THEREOF AS ANTIBACTERIAL AGENTS, COMPOSITIONS AND PRODUCTS CONTAINING SUCH AGENTS AND USE THEREOF” (BOARD OF REGENTS OF THE UNIVERSITY OF NEBRASKA, priority 2010, published 2013)
“Also recorded” adds a separate entry of the source.

Columns and labels:
Type in all cases: cell-based
[1] = system: Acinetobacter baumannii high level resistance (HLR); assay: Disc diffusion assay, CEE vs gentamicin; conditions: A. baumannii HLR; 50 mg anhydrous topical cream with 28% by weight agent; gentamicin 10 μg disc
Procedure: (§1) This testing involved the use of 50 mg of an anhydrous topical cream containing the antibacterial agent of the invention in an amount of 28% by weight and 10 μg of gentamicin, impregnated into a standard commercially available disc (Remel, Lenoxa Kans.).

Saccharomyces sp. [2] = assay: Selective growth on LBD agar, mixture of Micrococcus sp. and Saccharomyces sp. (Example 12, FIG. 11A)
Procedure: Colonies of Micrococcus sp. and Saccharomyces sp. grown on LB agar supplemented with 1% dextrose (LBD) were suspended in PBS to 0.30 A580 nm. An equal volume of the two organisms was combined and the mixture streaked onto LBD agar alone or LBD containing CEE and incubated at 37 C for 24 hours.

Rhodotorula sp. [3] = assay: Selective growth on LBD, mixture of S. aureus and Rhodotorula sp. (Example 12, FIG. 11B); conditions: 200-400 mM CEE in LBD, 37° C., 36 hours
Procedure: (§2) Colonies of S. aureus and Rhodotorula sp. grown on LB agar supplemented with 1% dextrose (LBD) were suspended in PBS to 0.30 A580 nm. An equal volume of the two organisms was combined and the mixture streaked onto wells containing only LBD (None) or LBD supplemented with a precursor of antibacterially-activated CRN, CEE, and incubated at 37° C. for 36 hours.

S. aureus [4] = assay: as above; conditions: 37° C., 36 hours
Procedure: as §2

S. aureus [5] = assay: Disc diffusion assay of creatine esters (Example 6); conditions: approx. 50 μL anhydrous polyethylene glycol carrier with 28% by weight agent
Procedure: Four (4) different creatine esters were prepared according to the method of U.S. Pat. No. 6,897,334 to Vennerstrom. The esters thus prepared were activated in the manner described herein to impart antibacterial activity thereto. Four (4) test formulations were prepared, each including approximately 50 μL of an anhydrous polyethylene glycol carrier containing 28% by weight of a different creatine ester. Each formulation was added to a 6 mm disc and inverted onto a brain heart infusion agar plate that was previously spread with S. aureus at 10^5 organisms per mL. Plates were incubated at 37° C. overnight and the clear zones showing inhibition of bacterial growth were measured.

[6] = system: Escherichia coli beta lactamase producer (ESBL); conditions: E. coli ESBL; 50 mg anhydrous topical cream with 28% by weight agent; gentamicin 10 μg disc
Procedure: as §1

M. luteus = assay: Growth in broth with CEE at different concentrations (Example 3, FIG. 2B); conditions: broth culture, absorbance over time
Procedure: The CEE precursor of antibacterially-activated CRN was diluted at different concentrations into Lederberg's broth (LB), which was then inoculated to 10^4/mL with S. aureus. The cultures were incubated in capped plastic tubes at 37° C. and aerated by tumbling using a tube rotating device.
A similar experiment was conducted with the same precursor of antibacterially-activated CRN and tested on M. luteus.

S. aureus UAMS-1 = assay: Bactericidal test in overnight culture (Example 5, FIG. 4); conditions: 200 mM
Procedure: S. aureus UAMS-1 was started from a static overnight, grown for 3 hours, then 0.2 mL was added to 3 different 50 mL cultures for control, CRN and CEE. These were shaken 30 min. at 37° C., an aliquot was removed prior to the addition of a precursor of antibacterially-activated CRN, CEE, or antibacterially-activated CRN, and the starting titer was determined. Powdered CEE or crystal CRN was added directly to the 50 mL cultures to a final concentration of 200 mM. The cultures were shaken overnight and the absorbance (A) and colony forming units (cfu) were determined.

Micrococcus sp. = assay: Selective growth on BHI agar, mixture of three organisms (Example 12, FIG. 11C)
Procedure: (§3) Colonies of Micrococcus sp., Rhodotorula sp. and Saccharomyces sp. grown on brain heart infusion agar (BHI) were suspended in PBS to 0.30 OD, 580 nm. An equal volume of the three (3) organisms were combined and the mixture streaked onto plates containing BHI agar alone or BHI agar supplemented with a precursor of antibacterially-activated CRN, CEE, and incubated 48 hours at 37° C.

Rhodotorula sp. [7] = assay: as above
Procedure: as §3

Saccharomyces sp. [8] = assay: as above
Procedure: as §3

Bacillus subtilis = assay: Disc diffusion assay, odor causing microorganisms (Example 11); conditions: 25 mg anhydrous formulation (28% by weight) on filter disc
Procedure: (§4) Twenty-five milligrams of an anhydrous formulation of either antibacterially-activated CRN or a precursor of antibacterially-activated CRN, CEE, was prepared as described in Example 2, applied to a filter disc and tested for inhibition of bacterial growth of several odor causing microorganisms in a standard disc diffusion assay using Eridex™ (Cargill Inc. Cedar Rapids, Iowa) or creatine monohydrate containing no antibacterial agent as controls. […] The zones of inhibition for CRN or lack thereof for control test samples for B. linens and M. luteus are illustrated in FIGS. 10A and 10B respectively.

Brevibacterium linens = assay: as above; conditions: 25 mg anhydrous formulation (28% by weight) on filter disc
Procedure: as §4

[9] = system: Staphylococcus epidermidis; assay: as above; conditions: 25 mg anhydrous formulation (28% by weight) on filter disc
Procedure: as §4

Micrococcus luteus = assay: as above; conditions: 25 mg anhydrous formulation (28% by weight) on filter disc
Procedure: as §4

S. aureus [10] = assay: Disc diffusion assay in hydrogel carrier (Example 8)
Procedure: Separate formulations of antibacterially-activated CRN and a precursor of antibacterially-activated CRN, CEE, were prepared by admixing the respective antibacterial agent with a hydrogel (Advanced Medical Solutions Ltd, UK.) in varying amounts to provide final concentrations of 1 M, 500 mM, 250 mM and 125 mM. Approximately 50 μL of each formulation at the four (4) different molar concentrations was added to a 6 mm disc and inverted onto a brain heart infusion agar plate that was previously spread with S. aureus suspended in PBS at 10^5 organisms per mL. Plates were incubated at 37° C. overnight and clear zones showing inhibition of bacterial growth were measured. The hydrogel carrier including no bacterial agent (0 mM) was used as a control.

[11] = 300 and 400 mM CEE in BHI agar (data not shown)
[12] = 100 mM and 200 mM CEE in BHI agar, 48 hours, 37° C.

## CCOC(=O)CN(C)C(=N)N [CEE, creatine ethyl ester]
[1]
  Zone of Inhibition: 16 mm
Saccharomyces sp. [2]; 200 mM CEE in LBD agar, 37 C, 24 hours
  selectivity of media for yeast over Micrococcus sp.: selective for Saccharomyces
Saccharomyces sp. [2]; 300-400 mM CEE in LBD agar (data not shown)
  growth of Saccharomyces: supported growth of Saccharomyces
Rhodotorula sp. [3]
  growth of Rhodotorula: did not retard growth
S. aureus [4]; 100 mM CEE in LBD
  growth of Staphylococcus: retarded
S. aureus [4]; 200 mM CEE and greater in LBD
  growth of Staphylococcus: completely inhibited
S. aureus [5]
  Zone of Inhibition: 20 mm
[6]
  Zone of Inhibition: 19 mm
M. luteus
  concentration that inhibited growth of M. luteus: approximately 1 mM
S. aureus UAMS-1; overnight culture, 48 hours incubation of plates, control 3×10^9 per mL
  colonies from 1 mL of treated culture plated on solid media: no colonies
S. aureus UAMS-1; starting at about 1×10^3 organisms per mL
  bactericidal action for S. aureus: bacteriocidal; also recorded: bactericidal
Micrococcus sp.; 100 mM CEE in BHI agar, 48 hours, 37° C.
  growth of Micrococcus: greatly retarded
Micrococcus sp.; 200 mM CEE in BHI agar, 48 hours, 37° C.
  growth of Micrococcus: completely inhibited
Micrococcus sp.; [11]
  growth of Micrococcus: inhibited the growth of Micrococcus
Rhodotorula sp. [7]; [12]
  growth of Rhodotorula: enhanced
Rhodotorula sp. [7]; [11]
  growth of Rhodotorula: did not affect the growth
Saccharomyces sp. [8]; [12]
  growth of Saccharomyces: enhanced
Saccharomyces sp. [8]; [11]
  growth of Saccharomyces: did not affect the growth
Bacillus subtilis
  ZONE OF INHIBITION: 20 mm
Brevibacterium linens
  ZONE OF INHIBITION: 40 mm
[9]
  ZONE OF INHIBITION: 27 mm
Micrococcus luteus
  ZONE OF INHIBITION: 22 mm
S. aureus [10]; Staphylococcus aureus
  zone of inhibition at 125000 µM: 7 mm
  zone of inhibition at 250000 µM: 10 mm
  zone of inhibition at 500000 µM: 15 mm
S. aureus [10]; hydrogel, 1M, approx. 50 μL
  Zone of Inhibition: 20 mm
